ChEMBL document CHEMBL4507270 (2021)

Experiments:
[1] = target: Protein kinase C epsilon type (Homo sapiens) (UniProt Q02156)
[2] = target: Tyrosine-protein kinase JAK1 (Homo sapiens) (UniProt P23458)
[3] = target: Testis-specific serine/threonine-protein kinase 1 (Homo sapiens) (UniProt Q9BXA7)
[4] = target: Cyclin-dependent kinase-like 1 (Homo sapiens) (UniProt Q00532)
[5] = target: Dual specificity protein kinase CLK3 (Homo sapiens) (UniProt P49761)
[6] = target: Protein-tyrosine kinase 6 (Homo sapiens) (UniProt Q13882)
[7] = target: Mitogen-activated protein kinase kinase kinase 19 (Homo sapiens) (UniProt Q56UN5)
[8] = target: Alpha-1A adrenergic receptor (Homo sapiens) (UniProt P35348); conditions: Compound concentration 10.0 uM
[9] = target: Serine/threonine-protein kinase MRCK beta (Homo sapiens) (UniProt Q9Y5S2)
[10] = target: Serine/threonine-protein kinase NIM1 (Homo sapiens) (UniProt Q8IY84)
[11] = target: Myosin light chain kinase, smooth muscle (Homo sapiens) (UniProt Q15746)
[12] = target: SRSF protein kinase 2 (Homo sapiens) (UniProt P78362)
[13] = tested on: Phosphatidylinositol 4,5-bisphosphate 3-kinase catalytic subunit alpha isoform (Homo sapiens), P42336 [C420R]
[14] = target: Casein kinase I isoform gamma-3 (Homo sapiens) (UniProt Q9Y6M4)
[15] = target: Cyclin-dependent kinase 9 (Homo sapiens) (UniProt P50750)
[16] = tested on: Tyrosine-protein kinase ABL1 (Homo sapiens), P00519 [T315I]
[17] = target: Rho-associated protein kinase 1 (Homo sapiens) (UniProt Q13464)
[18] = target: Eukaryotic translation initiation factor 2-alpha kinase 1 (Homo sapiens) (UniProt Q9BQI3)
[19] = target: Protein kinase C iota type (Homo sapiens) (UniProt P41743)
[20] = target: Serine/threonine-protein kinase 3 (Homo sapiens) (UniProt Q13188)
[21] = target: Serine/threonine-protein kinase 4 (Homo sapiens) (UniProt Q13043)
[22] = target: Cyclin-dependent kinase 11A (Homo sapiens) (UniProt Q9UQ88)
[23] = target: Aurora kinase B (Homo sapiens) (UniProt Q96GD4)
[24] = target: MAP/microtubule affinity-regulating kinase 3 (Homo sapiens) (UniProt P27448)
[25] = target: Homeodomain-interacting protein kinase 3 (Homo sapiens) (UniProt Q9H422)
[26] = target: Ribosomal protein S6 kinase alpha-4 (Homo sapiens) (UniProt O75676)
[27] = target: Serine/threonine-protein kinase RIO1 (Homo sapiens) (UniProt Q9BRS2)
[28] = target: Mitogen-activated protein kinase 11 (Homo sapiens) (UniProt Q15759)
[29] = target: Serine/threonine-protein kinase 36 (Homo sapiens) (UniProt Q9NRP7)
[30] = target: Ribosomal protein S6 kinase alpha-1 (Homo sapiens) (UniProt Q15418)
[31] = target: Ephrin type-A receptor 4 (Homo sapiens) (UniProt P54764)
[32] = target: Ephrin type-A receptor 5 (Homo sapiens) (UniProt P54756)
[33] = target: Serine/threonine-protein kinase Nek3 (Homo sapiens) (UniProt P51956)
[34] = target: G protein-coupled receptor kinase 4 (Homo sapiens) (UniProt P32298)
[35] = tested on: Receptor-type tyrosine-protein kinase FLT3 (Homo sapiens), P36888 [UNDEFINED MUTATION]
[36] = tested on: Phosphatidylinositol 4,5-bisphosphate 3-kinase catalytic subunit alpha isoform (Homo sapiens), P42336 [H1047Y]
[37] = target: Ephrin type-A receptor 8 (Homo sapiens) (UniProt P29322)
[38] = target: Aurora kinase A (Homo sapiens) (UniProt O14965)
[39] = target: RAC-beta serine/threonine-protein kinase (Homo sapiens) (UniProt P31751)
[40] = target: MAP kinase-activated protein kinase 5 (Homo sapiens) (UniProt Q8IW41)
[41] = target: Serine/threonine-protein kinase Sgk2 (Homo sapiens) (UniProt Q9HBY8)
[42] = target: Receptor tyrosine-protein kinase erbB-4 (Homo sapiens) (UniProt Q15303)
[43] = target: Tyrosine-protein kinase Blk (Homo sapiens) (UniProt P51451)
[44] = target: Tyrosine-protein kinase JAK1 (Homo sapiens) (UniProt P23458); remark: listed apart in the source
[45] = target: Dual specificity mitogen-activated protein kinase kinase 7 (Homo sapiens) (UniProt O14733)
[46] = Compound concentration 1000.0 nM
[47] = Compound concentration 100.0 nM

Chain of Tyrosine-protein kinase JAK1 (Homo sapiens) (P23458 whole entry): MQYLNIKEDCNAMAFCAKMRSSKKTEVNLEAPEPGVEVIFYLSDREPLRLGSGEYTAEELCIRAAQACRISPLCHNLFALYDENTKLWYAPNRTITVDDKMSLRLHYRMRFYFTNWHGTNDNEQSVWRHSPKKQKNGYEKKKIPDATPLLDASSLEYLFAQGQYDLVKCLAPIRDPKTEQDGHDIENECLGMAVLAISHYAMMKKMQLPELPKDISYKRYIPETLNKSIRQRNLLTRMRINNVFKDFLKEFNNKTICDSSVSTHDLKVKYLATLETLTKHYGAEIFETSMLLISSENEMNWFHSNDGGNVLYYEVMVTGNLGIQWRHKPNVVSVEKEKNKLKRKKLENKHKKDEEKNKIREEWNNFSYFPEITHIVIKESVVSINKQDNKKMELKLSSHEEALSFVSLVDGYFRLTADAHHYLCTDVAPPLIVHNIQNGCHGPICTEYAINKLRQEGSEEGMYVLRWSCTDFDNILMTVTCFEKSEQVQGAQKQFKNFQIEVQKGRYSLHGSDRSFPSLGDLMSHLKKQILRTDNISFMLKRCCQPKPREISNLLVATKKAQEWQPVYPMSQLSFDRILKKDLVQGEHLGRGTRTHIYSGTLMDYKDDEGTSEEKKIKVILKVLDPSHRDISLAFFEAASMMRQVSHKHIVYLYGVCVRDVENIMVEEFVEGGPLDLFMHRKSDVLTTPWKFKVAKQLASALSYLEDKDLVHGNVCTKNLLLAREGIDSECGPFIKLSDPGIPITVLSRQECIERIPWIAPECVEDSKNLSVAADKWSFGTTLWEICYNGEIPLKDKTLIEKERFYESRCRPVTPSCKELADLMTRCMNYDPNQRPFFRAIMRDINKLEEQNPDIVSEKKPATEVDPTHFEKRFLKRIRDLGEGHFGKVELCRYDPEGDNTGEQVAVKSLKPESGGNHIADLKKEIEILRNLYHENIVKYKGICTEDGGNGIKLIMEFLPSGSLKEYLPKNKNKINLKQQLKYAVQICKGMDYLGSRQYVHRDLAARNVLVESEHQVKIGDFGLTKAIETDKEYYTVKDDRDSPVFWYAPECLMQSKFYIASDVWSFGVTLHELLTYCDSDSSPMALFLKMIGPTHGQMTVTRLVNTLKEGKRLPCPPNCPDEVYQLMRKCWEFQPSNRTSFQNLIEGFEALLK
Chain of Ribosomal protein S6 kinase alpha-1 (Homo sapiens) (Q15418 whole entry): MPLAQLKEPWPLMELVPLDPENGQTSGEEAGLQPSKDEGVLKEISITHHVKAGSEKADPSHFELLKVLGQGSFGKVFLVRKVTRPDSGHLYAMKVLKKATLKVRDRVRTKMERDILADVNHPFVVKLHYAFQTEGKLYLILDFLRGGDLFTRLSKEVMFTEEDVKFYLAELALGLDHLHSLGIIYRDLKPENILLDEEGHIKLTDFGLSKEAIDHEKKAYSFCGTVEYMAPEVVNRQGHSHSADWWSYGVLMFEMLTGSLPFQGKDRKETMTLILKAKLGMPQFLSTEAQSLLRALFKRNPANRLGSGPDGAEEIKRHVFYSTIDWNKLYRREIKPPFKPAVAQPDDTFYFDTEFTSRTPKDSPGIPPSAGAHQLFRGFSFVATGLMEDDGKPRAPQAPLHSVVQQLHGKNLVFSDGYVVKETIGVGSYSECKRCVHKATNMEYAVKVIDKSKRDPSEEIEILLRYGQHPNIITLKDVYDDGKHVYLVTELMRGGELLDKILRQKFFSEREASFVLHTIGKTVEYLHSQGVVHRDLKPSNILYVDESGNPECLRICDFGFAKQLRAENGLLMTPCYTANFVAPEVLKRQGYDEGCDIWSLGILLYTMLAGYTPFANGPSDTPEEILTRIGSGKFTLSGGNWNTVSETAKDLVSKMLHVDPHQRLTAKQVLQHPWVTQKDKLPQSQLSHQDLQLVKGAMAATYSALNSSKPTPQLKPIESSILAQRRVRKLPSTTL
Chain of MAP kinase-activated protein kinase 5 (Homo sapiens) (Q8IW41 whole entry): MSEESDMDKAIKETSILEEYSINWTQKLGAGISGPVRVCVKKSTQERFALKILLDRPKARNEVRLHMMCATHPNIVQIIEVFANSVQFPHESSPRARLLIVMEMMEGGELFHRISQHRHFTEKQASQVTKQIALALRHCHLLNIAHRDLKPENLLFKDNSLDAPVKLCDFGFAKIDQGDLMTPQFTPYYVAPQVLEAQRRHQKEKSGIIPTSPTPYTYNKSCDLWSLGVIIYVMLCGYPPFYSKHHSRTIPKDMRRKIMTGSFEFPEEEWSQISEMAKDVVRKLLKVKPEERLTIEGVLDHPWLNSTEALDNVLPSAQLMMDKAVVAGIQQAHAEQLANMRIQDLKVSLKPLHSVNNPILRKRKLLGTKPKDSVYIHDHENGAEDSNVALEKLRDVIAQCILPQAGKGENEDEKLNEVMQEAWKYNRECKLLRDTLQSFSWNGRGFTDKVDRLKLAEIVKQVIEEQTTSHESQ
Chain of Ephrin type-A receptor 8 (Homo sapiens) (P29322 whole entry): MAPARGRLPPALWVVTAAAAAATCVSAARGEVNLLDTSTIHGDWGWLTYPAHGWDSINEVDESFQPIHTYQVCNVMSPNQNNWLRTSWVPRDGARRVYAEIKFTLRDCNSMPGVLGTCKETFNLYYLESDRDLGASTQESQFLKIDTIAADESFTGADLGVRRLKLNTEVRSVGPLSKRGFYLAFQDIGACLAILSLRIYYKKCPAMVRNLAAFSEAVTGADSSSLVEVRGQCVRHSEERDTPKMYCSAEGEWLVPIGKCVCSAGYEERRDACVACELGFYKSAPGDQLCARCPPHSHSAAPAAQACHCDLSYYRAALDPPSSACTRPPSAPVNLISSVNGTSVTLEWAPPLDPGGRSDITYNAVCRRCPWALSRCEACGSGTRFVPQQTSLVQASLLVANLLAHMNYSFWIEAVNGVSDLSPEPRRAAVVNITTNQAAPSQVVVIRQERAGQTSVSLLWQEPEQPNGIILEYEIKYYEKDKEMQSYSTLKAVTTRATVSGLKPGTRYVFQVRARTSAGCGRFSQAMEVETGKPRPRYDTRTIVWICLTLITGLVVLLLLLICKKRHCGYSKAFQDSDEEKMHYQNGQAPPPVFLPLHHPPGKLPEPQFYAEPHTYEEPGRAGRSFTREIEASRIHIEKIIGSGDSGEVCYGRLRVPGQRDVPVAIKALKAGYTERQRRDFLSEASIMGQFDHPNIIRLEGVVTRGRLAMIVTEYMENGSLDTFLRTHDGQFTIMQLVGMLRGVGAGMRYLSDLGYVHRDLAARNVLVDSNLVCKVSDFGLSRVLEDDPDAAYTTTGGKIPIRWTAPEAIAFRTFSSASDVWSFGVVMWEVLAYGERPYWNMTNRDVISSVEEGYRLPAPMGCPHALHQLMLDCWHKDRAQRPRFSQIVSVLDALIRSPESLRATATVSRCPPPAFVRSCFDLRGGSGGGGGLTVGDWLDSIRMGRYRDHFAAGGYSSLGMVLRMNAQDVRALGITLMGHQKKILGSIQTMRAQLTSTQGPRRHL
Chain of Serine/threonine-protein kinase RIO1 (Homo sapiens) (Q9BRS2 whole entry): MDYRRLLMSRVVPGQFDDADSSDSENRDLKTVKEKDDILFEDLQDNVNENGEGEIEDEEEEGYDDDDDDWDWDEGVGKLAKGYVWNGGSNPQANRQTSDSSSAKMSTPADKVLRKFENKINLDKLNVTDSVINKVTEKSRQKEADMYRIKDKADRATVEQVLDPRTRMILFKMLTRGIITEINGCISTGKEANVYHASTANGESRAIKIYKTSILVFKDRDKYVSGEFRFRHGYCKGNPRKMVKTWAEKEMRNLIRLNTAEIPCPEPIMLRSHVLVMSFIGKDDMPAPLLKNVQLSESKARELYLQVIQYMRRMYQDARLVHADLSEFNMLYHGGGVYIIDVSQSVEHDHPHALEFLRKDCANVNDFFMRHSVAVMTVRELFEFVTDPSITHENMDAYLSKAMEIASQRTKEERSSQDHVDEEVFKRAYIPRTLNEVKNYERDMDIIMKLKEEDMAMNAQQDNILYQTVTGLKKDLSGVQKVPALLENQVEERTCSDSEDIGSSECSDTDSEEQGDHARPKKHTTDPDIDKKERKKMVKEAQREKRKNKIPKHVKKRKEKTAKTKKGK
Chain of Serine/threonine-protein kinase 4 (Homo sapiens) (Q13043 whole entry): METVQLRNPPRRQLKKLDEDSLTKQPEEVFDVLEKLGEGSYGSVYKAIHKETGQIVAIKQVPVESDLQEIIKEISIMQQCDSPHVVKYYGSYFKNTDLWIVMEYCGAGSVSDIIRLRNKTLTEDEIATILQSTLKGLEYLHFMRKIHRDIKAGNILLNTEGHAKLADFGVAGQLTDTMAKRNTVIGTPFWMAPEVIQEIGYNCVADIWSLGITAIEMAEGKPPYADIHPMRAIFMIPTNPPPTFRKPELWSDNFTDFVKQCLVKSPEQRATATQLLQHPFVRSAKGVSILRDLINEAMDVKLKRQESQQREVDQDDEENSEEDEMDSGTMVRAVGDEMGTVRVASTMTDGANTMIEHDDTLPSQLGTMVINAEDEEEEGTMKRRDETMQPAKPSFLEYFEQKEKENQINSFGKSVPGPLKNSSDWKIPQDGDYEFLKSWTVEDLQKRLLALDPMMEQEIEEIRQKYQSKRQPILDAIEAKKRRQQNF
Chain of G protein-coupled receptor kinase 4 (Homo sapiens) (P32298 whole entry, looked up): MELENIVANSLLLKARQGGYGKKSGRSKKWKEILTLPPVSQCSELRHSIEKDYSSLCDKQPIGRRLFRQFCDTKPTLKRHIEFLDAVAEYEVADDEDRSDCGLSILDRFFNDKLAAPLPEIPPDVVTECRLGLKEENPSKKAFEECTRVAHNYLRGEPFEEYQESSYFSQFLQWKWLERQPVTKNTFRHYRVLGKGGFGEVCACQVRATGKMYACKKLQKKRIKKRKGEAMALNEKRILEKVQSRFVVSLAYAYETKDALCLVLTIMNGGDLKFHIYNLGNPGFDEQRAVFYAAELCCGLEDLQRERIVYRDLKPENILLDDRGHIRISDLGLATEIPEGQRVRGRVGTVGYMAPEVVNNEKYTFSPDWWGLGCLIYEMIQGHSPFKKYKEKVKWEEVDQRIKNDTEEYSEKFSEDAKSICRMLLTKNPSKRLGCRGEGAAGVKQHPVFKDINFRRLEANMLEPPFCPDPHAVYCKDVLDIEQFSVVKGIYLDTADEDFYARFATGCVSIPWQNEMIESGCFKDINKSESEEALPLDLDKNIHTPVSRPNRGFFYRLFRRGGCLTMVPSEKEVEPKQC

Question: Which results are given for Cc1cc(NC(=O)c2cccc(S(F)(F)(F)(F)F)c2)cc(-n2ccn3nc(-c4cccnc4)cc23)c1 [BAY-309]?
Answer: residual activity [1, 46]: 91.2%; residual activity [2, 46]: 28.7%; residual activity [3, 46]: 100%; residual activity [4, 46]: 84.5%; residual activity [5, 46]: 100%; residual activity [6, 46]: 100%; residual activity [7, 46]: 100%; inhibition [8]: 5.89%; residual activity [9, 46]: 100%; residual activity [10, 46]: 100%; residual activity [11, 46]: 91.8%; residual activity [12, 46]: 100%; residual activity [13, 46]: 97.1%; residual activity [14, 46]: 100%; residual activity [15, 46]: 100%; residual activity [16, 46]: 88.9%; residual activity [17, 46]: 74.8%; residual activity [18, 46]: 100%; residual activity [19, 46]: 80.4%; residual activity [20, 46]: 100%; residual activity [21, 46]: 100%; residual activity [22, 46]: 95.4%; residual activity [23, 46]: 82%; residual activity [24, 46]: 100%; residual activity [25, 46]: 88.8%; residual activity [26, 46]: 100%; residual activity [27, 46]: 100%; residual activity [28, 46]: 98.1%; residual activity [29, 46]: 93.1%; residual activity [30, 46]: 91.7%; residual activity [31, 46]: 76%; residual activity [32, 46]: 100%; residual activity [33, 46]: 50.5%; residual activity [34, 46]: 100%; residual activity [35, 46]: 95.8%; residual activity [36, 46]: 22.9%; residual activity [37, 46]: 100%; residual activity [38, 46]: 84.9%; residual activity [39, 46]: 82.5%; residual activity [40, 46]: 100%; residual activity [41, 46]: 100%; residual activity [42, 46]: 98.1%; residual activity [43, 46]: 100%; residual activity [44, 46]: 100%; residual activity [45, 46]: 89.7%

Question: Which results are given for Cc1cc(C)c(-n2ccn3nc(-c4cccnc4)cc23)cc1NC(=O)c1cc(C#N)cc(S(F)(F)(F)(F)F)c1 [BAY-826]?
Answer: residual activity [1, 47]: 100%; residual activity [2, 47]: 93.1%; residual activity [3, 47]: 100%; residual activity [4, 47]: 77.4%; residual activity [5, 47]: 87.7%; residual activity [6, 47]: 99.5%; residual activity [7, 47]: 99.5%; inhibition [8]: -3.02%; residual activity [9, 47]: 95.5%; residual activity [10, 47]: 98.9%; residual activity [11, 47]: 57.7%; residual activity [12, 47]: 60.1%; residual activity [13, 47]: 85.4%; residual activity [14, 47]: 93.7%; residual activity [15, 47]: 85.5%; residual activity [16, 47]: 33.4%; residual activity [17, 47]: 74.9%; residual activity [18, 47]: 100%; residual activity [19, 47]: 100%; residual activity [20, 47]: 85.4%; residual activity [21, 47]: 88.5%; residual activity [22, 47]: 89.9%; residual activity [23, 47]: 98.8%; residual activity [24, 47]: 85.1%; residual activity [25, 47]: 80.7%; residual activity [26, 47]: 100%; residual activity [27, 47]: 100%; residual activity [28, 47]: 93.4%; residual activity [29, 47]: 80.8%; residual activity [30, 47]: 97%; residual activity [31, 47]: 100%; residual activity [32, 47]: 92.4%; residual activity [33, 47]: 70.7%; residual activity [34, 47]: 100%; residual activity [35, 47]: 100%; residual activity [36, 47]: 76.2%; residual activity [37, 47]: 83.5%; residual activity [38, 47]: 75.9%; residual activity [39, 47]: 88.4%; residual activity [40, 47]: 91.7%; residual activity [41, 47]: 100%; residual activity [42, 47]: 96.3%; residual activity [43, 47]: 100%; residual activity [44, 47]: 100%; residual activity [45, 47]: 70.8%
